From US6034058A, “Semi-synthetic alanyl dilemnin analogs” (priority 1998, dated 2000)
Numbered stars: 1 amine (or outer) side, 2 acyl side, 3 side chain; on linkers, the order of the positions; unused ones are H or OH. Bridge positions count the residues as written; N and C are the ends. Square brackets hold non-standard residues; d marks the D form. Peptide text beside a SMILES is read from it. X1 = CC[C@H](C)[C@@H](N[*:1])[C@@H](O)CC(=O)O[C@H](C(=O)[C@H](C)C(=O)[*:2])C(C)C; NMeY = CN[C@@H](Cc1ccc(O)cc1)C(=O)O; dNMeL = CN[C@H](CC(C)C)C(=O)O

Legend:
DNA and RNA viruses = conditions: against DNA and RNA viruses; cited from earlier work
L1210 = format: cell-based; conditions: for L1210, IC90: L1210 cells, cytotoxicity
[1] = molecular target: elongation factor-1α (EF-1α) (Homo sapiens, UniProt P68104); conditions: GEP-dependent manner; cited from earlier work
[2] = in vitro; cited from earlier work
Nb2 node lymphoma cells = conditions: cited from earlier work

Sequence of elongation factor-1α (EF-1α) (P68104 whole entry): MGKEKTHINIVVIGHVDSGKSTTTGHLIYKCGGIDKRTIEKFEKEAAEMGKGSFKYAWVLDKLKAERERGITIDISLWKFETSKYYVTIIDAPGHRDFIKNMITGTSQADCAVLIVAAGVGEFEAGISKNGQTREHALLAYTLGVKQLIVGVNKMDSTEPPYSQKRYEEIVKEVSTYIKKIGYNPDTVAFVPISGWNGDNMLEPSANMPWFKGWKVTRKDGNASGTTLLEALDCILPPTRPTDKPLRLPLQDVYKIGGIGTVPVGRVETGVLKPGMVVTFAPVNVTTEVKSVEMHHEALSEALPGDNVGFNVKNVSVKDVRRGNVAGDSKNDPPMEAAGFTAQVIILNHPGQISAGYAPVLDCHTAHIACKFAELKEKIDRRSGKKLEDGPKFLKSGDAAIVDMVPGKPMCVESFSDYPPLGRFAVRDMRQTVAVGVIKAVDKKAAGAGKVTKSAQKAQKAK

Row | Compound | L1210, IC90 (L1210) | also measured
1 | CC[C@H](C)[C@H]1NC(=O)[C@@H](NC(=O)[C@@H](CC(C)C)NC)[C@@H](C)OC(=O)[C@H](Cc2ccc(OC)cc2)N(C)C(=O)[C@@H]2CCCN2C(=O)[C@H](CC(C)C)NC(=O)[C@@H](C)C(=O)[C@H](C(C)C)OC(=O)C[C@@H]1O [Didemnin A] (H-[dNMeL]T[X1]LP[NMeY](Me); ester 2-C) | 75 ng/mL | antiviral activity (DNA and RNA viruses): exhibit antiviral activity; binding to EF-1α [1]: binds elongation factor-1α (EF-1α)
2 | CC[C@H](C)[C@H]1NC(=O)[C@@H](NC(=O)[C@@H](CC(C)C)N(C)C(=O)[C@@H]2CCCN2C(=O)C(C)O)[C@@H](C)OC(=O)[C@H](Cc2ccc(OC)cc2)N(C)C(=O)[C@@H]2CCCN2C(=O)[C@H](CC(C)C)NC(=O)[C@@H](C)C(=O)[C@H](C(C)C)OC(=O)C[C@@H]1O (stereo partly shown) [Didemnin B] | 7 ng/mL | antiviral activity (DNA and RNA viruses): exhibit antiviral activity; cytotoxicity relative to didemnin A [2]: approximately twenty times more cytotoxic than didemnin A; binding to a site on Nb2 node lymphoma cells (Nb2 node lymphoma cells): binds to a site on Nb2 node lymphoma cells
3 | L-Alaninyl-didemnin A [Alaninyl DA] | 8 ng/mL | 
4 | L-[Alaninyl^9 ] didemnin B [[Ala^9]DB] |  | relative bioactivity among the didemnins synthesized (L1210; preliminary assay results): the most active of the didemnins synthesized thus far
5 | L-glutaminyl-L-[alaninyl^9 ]didemnin B [Gln-[Ala^9]DB] | 200 ng/mL | 
6 | L-glutaminyl-L-alaninyl-didemnin A [Glutaminyl-AlaDA] | 25 ng/mL | 
7 | L-pyroglutamyl-L-[alaninyl^9 ] didemnin B [pGlu-[Ala^9]DB] | 500 ng/mL | 
8 | N-Benzyloxycarbonly-L-[Alaninyl^9 ]didemnin B [Cbz-[Ala^9]DB] | 2 ng/mL | 
9 | N-Benzyloxycarbonyl-L-alaninyl-didemnin A [Cbz-Alaninyl DA] | 3 ng/mL | 
10 | N-Benzyloxycarbonyl-L-glutaminyl-didemnin A [Cbz-Glutaminyl DA] | 8 ng/mL | 
11 | Pro-Didemnin A [Prolyl DA] | 12 ng/mL | 
